Some results are limits rather than exact numbers.

Common to all, as to assay type: biochemical
One test deals with T1, mouse MMP-2 (Mus musculus, UniProt P33434).
T1 construct: purchased R&D Systems 924-MP
Put plainly: In vitro mouse MMP-2 inhibition test. From the text:
(§1) The MMP-mediated amidolytic cleavage of a suitable peptide substrate leads to an increase in fluorescent light here too. The signal intensity of the fluorescent light is directly proportional to the enzyme activity. The active concentration of a test compound at which half the enzyme is inhibited (50% signal intensity of the fluorescent light) is reported as the IC50 value.
(§2) Recombinant mouse MMP-2 (from R&D Systems, 924-MP) is chemically activated in accordance with the manufacturer's instructions using APMA. 1 μl of the test compound to be analysed (as a solution in DMSO, suitable concentrations, for example, 1 nM to 30 μM) is pipetted into 24 μl of activated enzyme (final concentration, for example, 0.1 nM) in reaction buffer (50 mM Tris/HCl pH 7.5, 10 mM CaCl2, 150 mM NaCl, 0.05% Brij®-35) in a white 384-hole microtiter plate (MTP). The enzymatic reaction is started by adding the intramolecularly quenched Mca-Pro-Leu-Gly-Leu-Dpa(Dnp)-Ala-Arg-NH2 substrate (final concentration, for example, 10 μM; R&D Systems, ES-001), so as to result in a total test volume of 50 The course of the MMP-2 reaction is measured by measuring the fluorescence intensity (excitation 320 nm, emission 410 nm) over a suitable period of time (for example over 120 min at a temperature of 32° C.).

The target in the next test is T2, mouse MMP-3 (Mus musculus, UniProt P28862).
T2 construct: purchased R&D Systems 548-MP
The test can be described thus: In vitro mouse MMP-3 inhibition test.
Excerpt: as §1
(§3) Recombinant mouse MMP-3 (from R&D Systems, 548-MP) is chemically activated in accordance with the manufacturer's instructions using APMA. 1 μl of the test compound to be analysed (as a solution in DMSO, suitable concentrations, for example, 1 nM to 30 μM) is pipetted into 24 μl of activated enzyme (final concentration, for example, 0.5 nM) in reaction buffer (50 mM Tris/HCl pH 7.5, 10 mM CaCl2, 150 mM NaCl, 0.05% Brij®-35) in a white 384-hole microtiter plate (MTP). The enzymatic reaction is started by adding the intramolecularly quenched Mca-Arg-Pro-Lys-Pro-Val-Glu-Nval-Trp-Arg-Lys(Dnp)-NH2 substrate (final concentration, for example, 5 μM; R&D Systems, ES-002), so as to result in a total test volume of 50 μl. The course of the MMP-3 reaction is measured by measuring the fluorescence intensity (excitation 320 nm, emission 410 nm) over a suitable period of time (for example over 120 min at a temperature of 32° C.).

The target in a further test is T3, mouse MMP-7 (Mus musculus, UniProt Q10738).
T3 construct: purchased R&D Systems 2967-MP
T3 sequence (Q10738 95-264): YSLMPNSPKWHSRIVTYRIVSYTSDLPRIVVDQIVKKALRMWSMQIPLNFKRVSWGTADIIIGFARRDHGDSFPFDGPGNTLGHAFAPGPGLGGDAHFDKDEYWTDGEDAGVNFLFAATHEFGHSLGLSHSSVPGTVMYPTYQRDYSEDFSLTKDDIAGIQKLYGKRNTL
The test can be described thus: In vitro mouse MMP-7 inhibition test.
Excerpt: as §1
as §3, with “MMP-7” for “MMP-3”, “2967-MP)” for “548-MP)”, “Mca-Lys-Pro-Leu-Gly-Leu-Dpa(Dnp)-Ala-Arg-NH2” for “Mca-Arg-Pro-Lys-Pro-Val-Glu-Nval-Trp-Arg-Lys(Dnp)-NH2”, “ES-010),” for “ES-002),”

Another test deals with T4, mouse MMP-9 (Mus musculus, UniProt P41245).
T4 construct: purchased R&D Systems 909-MP
The test can be described thus: In vitro mouse MMP-9 inhibition test.
Excerpt: as §1
as §2, with “mouse MMP-9” for “mouse MMP-2”, “Systems, 909-MP)” for “Systems, 924-MP)”, “example, 5” for “example, 10”, “the MMP-9” for “the MMP-2”

T1 sequence (P33434 110-662): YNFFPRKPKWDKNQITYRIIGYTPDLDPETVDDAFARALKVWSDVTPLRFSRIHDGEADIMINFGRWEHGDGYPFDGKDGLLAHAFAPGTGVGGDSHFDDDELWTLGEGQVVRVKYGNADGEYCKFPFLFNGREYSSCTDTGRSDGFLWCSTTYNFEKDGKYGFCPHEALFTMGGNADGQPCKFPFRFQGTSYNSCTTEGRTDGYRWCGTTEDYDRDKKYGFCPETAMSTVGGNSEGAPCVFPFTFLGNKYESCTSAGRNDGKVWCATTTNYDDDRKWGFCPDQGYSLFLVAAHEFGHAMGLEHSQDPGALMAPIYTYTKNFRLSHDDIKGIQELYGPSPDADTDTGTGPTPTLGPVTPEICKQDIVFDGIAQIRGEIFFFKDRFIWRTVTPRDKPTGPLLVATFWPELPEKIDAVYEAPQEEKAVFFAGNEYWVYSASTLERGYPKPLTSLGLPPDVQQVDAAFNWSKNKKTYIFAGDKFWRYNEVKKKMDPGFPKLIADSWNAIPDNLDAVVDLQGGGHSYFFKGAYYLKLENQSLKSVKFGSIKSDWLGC
T2 sequence (P28862 100-477): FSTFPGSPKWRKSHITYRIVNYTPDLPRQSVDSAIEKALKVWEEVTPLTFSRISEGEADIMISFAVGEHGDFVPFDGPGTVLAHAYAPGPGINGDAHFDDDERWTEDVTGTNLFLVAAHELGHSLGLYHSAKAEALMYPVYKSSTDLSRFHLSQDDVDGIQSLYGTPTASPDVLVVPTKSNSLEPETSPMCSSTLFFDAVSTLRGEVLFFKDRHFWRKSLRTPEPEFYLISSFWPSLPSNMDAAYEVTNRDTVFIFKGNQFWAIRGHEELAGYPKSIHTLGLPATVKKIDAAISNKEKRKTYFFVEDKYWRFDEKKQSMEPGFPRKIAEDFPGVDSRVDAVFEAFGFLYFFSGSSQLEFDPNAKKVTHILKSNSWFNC
T4 sequence (P41245 108-730): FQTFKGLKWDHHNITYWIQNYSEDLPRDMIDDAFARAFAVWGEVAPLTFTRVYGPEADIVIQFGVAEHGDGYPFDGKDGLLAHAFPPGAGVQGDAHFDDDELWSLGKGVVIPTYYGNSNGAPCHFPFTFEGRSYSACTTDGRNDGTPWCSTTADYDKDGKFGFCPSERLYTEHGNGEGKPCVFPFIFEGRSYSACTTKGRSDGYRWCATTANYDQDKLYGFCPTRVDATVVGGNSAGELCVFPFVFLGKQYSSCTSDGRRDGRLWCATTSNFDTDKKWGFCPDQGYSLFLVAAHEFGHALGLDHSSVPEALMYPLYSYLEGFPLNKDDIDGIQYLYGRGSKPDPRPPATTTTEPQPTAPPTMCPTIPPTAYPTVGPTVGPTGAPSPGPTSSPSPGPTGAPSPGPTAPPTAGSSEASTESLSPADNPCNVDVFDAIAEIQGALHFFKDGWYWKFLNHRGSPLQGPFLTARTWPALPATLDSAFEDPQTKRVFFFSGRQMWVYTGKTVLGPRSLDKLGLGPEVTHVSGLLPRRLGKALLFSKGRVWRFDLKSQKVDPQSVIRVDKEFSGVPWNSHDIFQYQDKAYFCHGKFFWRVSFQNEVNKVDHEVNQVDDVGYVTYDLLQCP

As for `O=C(O)[C@H]1[C@H](Cn2nnc3ccc(C(F)(F)F)cc3c2=O)CC[C@@H]1C(=O)c1ccc(OCC2CCCCC2)cc1` (racemic) [Example 40, (+/−)-(1RS,2RS,5SR)-2-[4-(Cyclohexylmethoxy)benzoyl]-5-{[4-oxo-6-(trifluoromethyl)-1,2,3-benzotriazin-3(4H)-yl]methyl}cyclopentanecarboxylic acid], the half-maximal inhibitory concentration (IC50) – broadly, the midpoint of a concentration-inhibition curve – against mouse MMP-2 came out at 570 nM; at mouse MMP-3, 180 nM; on mouse MMP-7, 220 nM; at mouse MMP-9, 640 nM.

As to “(+)-(1RS,2RS,5SR)-2-{4-[(3,4-Dichlorobenzyl)oxy]benzoyl}-5-{[4-oxo-6-(trifluoromethyl)-1,2,3-benzotriazin-3(4H)-yl]methyl}cyclopentanecarboxylic acid [Example 28]”, the IC50 on mouse MMP-2 was determined as 1000 nM; against mouse MMP-3, 8200 nM; at mouse MMP-7, 140 nM; on mouse MMP-9, 2500 nM.

Take `O=C(O)[C@H]1[C@H](Cn2nnc3ccccc3c2=O)CC[C@@H]1C(=O)c1ccc(OCc2cccc(Cl)c2)cc1` (racemic) [Example 2, (+/−)-(1RS,2RS,5SR)-2-{4-[(3-Chlorobenzyl)oxy]benzoyl}-5-[(4-oxo-1,2,3-benzotriazin-3(4H)-yl)methyl]cyclopentanecarboxylic acid]: the IC50 against mouse MMP-2 was found to be 400 nM; on mouse MMP-3, 1300 nM; against mouse MMP-7 it was 140 nM; against mouse MMP-9, 1100 nM.

For `Cc1cccc(COc2ccc(C(=O)[C@H]3CC[C@@H](Cn4nnc5ccc(C)cc5c4=O)[C@@H]3C(=O)O)cc2)c1` (racemic) [Example 97, (+/−)-(1RS,2RS,5SR)-2-{4-[(3-Methylbenzyl)oxy]benzoyl}-5-[(6-methyl-4-oxo-1,2,3-benzotriazin-3(4H)-yl)methyl]cyclopentanecarboxylic acid], the IC50 was 1900 nM against mouse MMP-2, 4600 nM at mouse MMP-3, 160 nM at mouse MMP-7 and 1600 nM against mouse MMP-9.

Consider `CCCCCCOc1ccc(C(=O)[C@@H]2CC[C@H](Cn3nnc4ccc(C)cc4c3=O)[C@H]2C(=O)O)cc1` (single isomer, unassigned) [Example 121, (+)-(1RS,2RS,5SR)-2-[4-(Hexyloxy)benzoyl]-5-[(6-methyl-4-oxo-1,2,3-benzotriazin-3(4H)-yl)methyl]cyclopentanecarboxylic acid], for which the IC50 on mouse MMP-2 was 420 nM; against mouse MMP-3, 2700 nM; on mouse MMP-7, 100 nM; on mouse MMP-9, 880 nM.

Take `O=C(O)[C@H]1[C@H](Cn2nnc3ccc(C(F)(F)F)cc3c2=O)CC[C@@H]1C(=O)c1ccc(SCc2ccc(Cl)c(Cl)c2)cc1` (racemic) [Example 79, (+/−)-(1RS,2RS,5SR)-2-{4-[(3,4-Dichlorobenzyl)sulphanyl]benzoyl}-5-{[4-oxo-6-(trifluoromethyl)-1,2,3-benzotriazin-3(4H)-yl]methyl}cyclopentanecarboxylic acid]: the IC50 stood at 5900 nM on mouse MMP-2, 9300 nM on mouse MMP-3, 1100 nM on mouse MMP-7 and 2100 nM against mouse MMP-9.

In the case of `O=C(O)[C@@H]1[C@@H](Cn2nnc3ccc(C(F)(F)F)cc3c2=O)CC[C@H]1C(=O)c1ccc(SCc2cccc(Cl)c2)cc1` (single isomer, unassigned) [Example 77, (+)-(1RS,2RS,5SR)-2-{4-[(3-Chlorobenzyl)sulphanyl]benzoyl}-5-{[4-oxo-6-(trifluoromethyl)-1,2,3-benzotriazin-3(4H)-yl]methyl}cyclopentanecarboxylic acid], the IC50 at mouse MMP-2 was determined as 1400 nM; against mouse MMP-3, 1400 nM; against mouse MMP-7, 54 nM; against mouse MMP-9 it was 23000 nM.

Take `Cc1ccc2nnn(C[C@H]3CC[C@@H](C(=O)c4ccc(OCc5cccc(Cl)c5)cc4)[C@@H]3C(=O)O)c(=O)c2c1` (single isomer, unassigned) [Example 104, (+)-(1RS,2RS,5SR)-2-{4-[(3-Chlorobenzyl)oxy]benzoyl}-5-[(6-methyl-4-oxo-1,2,3-benzotriazin-3(4H)-yl)methyl]cyclopentanecarboxylic acid]: the IC50 on mouse MMP-2 was determined as 290 nM; against mouse MMP-3 it was 490 nM; against mouse MMP-7, 20 nM; against mouse MMP-9, 330 nM.

For `Cc1ccc2nnn(C[C@H]3CC[C@@H](C(=O)c4ccc(OCc5cccc(OC(F)(F)F)c5)cc4)[C@@H]3C(=O)O)c(=O)c2c1` (single isomer, unassigned) [Example 110, (+)-(1RS,2SR,5RS)-2-[(6-Methyl-4-oxo-1,2,3-benzotriazin-3(4H)-yl)methyl]-5-(4-{[3-(trifluoromethoxy)benzyl]oxy}benzoyl)cyclopentanecarboxylic acid], the IC50 on mouse MMP-2 was 1100 nM; against mouse MMP-3, 2400 nM; against mouse MMP-7 it was 220 nM; on mouse MMP-9 it was 1100 nM.

With `O=C(O)[C@@H]1[C@@H](Cn2nnc3ccc(C(F)(F)F)cc3c2=O)CC[C@H]1C(=O)c1ccc(OCCC2CCCCC2)cc1` (single isomer, unassigned) [Example 52, (+)-(1RS,2RS,5SR)-2-[4-(2-Cyclohexylethoxy)benzoyl]-5-{[4-oxo-6-(trifluoromethyl)-1,2,3-benzotriazin-3(4H)-yl]methyl}cyclopentanecarboxylic acid], the IC50 is 1800 nM against mouse MMP-2, 6900 nM at mouse MMP-3, 170 nM at mouse MMP-7 and 2800 nM at mouse MMP-9.

Turning to `O=C(O)[C@H]1[C@H](Cn2nnc3ccc(C(F)(F)F)cc3c2=O)CC[C@@H]1C(=O)c1ccc(OCCCC2CCCCC2)cc1` (racemic) [Example 56, (+/−)-(1RS,2RS,5SR)-2-{4-(3-Cyclohexylpropoxy)benzoyl}-5-{[4-oxo-6-(trifluoromethyl)-1,2,3-benzotriazin-3(4H)-yl]methyl}cyclopentanecarboxylic acid], the 50% inhibitory concentration (IC50) was 5000 nM at mouse MMP-2, greater than 40000 nM against mouse MMP-3, 990 nM on mouse MMP-7 and greater than 40000 nM against mouse MMP-9.

On to `Cc1ccc2nnn(C[C@@H]3CC[C@H](C(=O)c4ccc(OCc5cccc(C(F)(F)F)c5)cc4)[C@H]3C(=O)O)c(=O)c2c1` (racemic) [Example 100, (+/−)-(1RS,2SR,5RS)-2-[(6-Methyl-4-oxo-1,2,3-benzotriazin-3(4H)-yl)methyl]-5-(4-{[3-(trifluoromethyl)benzyl]oxy}benzoyl)cyclopentanecarboxylic acid], for which the IC50 on mouse MMP-2 was 890 nM; against mouse MMP-3, 1800 nM; against mouse MMP-7 it was 150 nM; against mouse MMP-9 it was 1100 nM.

The record behind these values is patent publication US20170022171A1, “2,5-DISUBSTITUTED CYCLOPENTANECARBOXYLIC ACIDS AND THEIR USE” (Bayer Pharma Aktiengesellschaft, priority 2014, published 2017).
